Test results reported in patent publication US10626144B2, “Peptide derivatives and uses thereof” (Nosopharm, priority 2014, dated 2020).
Square brackets hold non-standard residues; d marks the D form. Peptide text beside a SMILES is read from it. * marks the point of attachment. Phe(4-Cl) = N[C@@H](Cc1ccc(Cl)cc1)C(=O)O; Phe(3-F) = N[C@@H](Cc1cccc(F)c1)C(=O)O; Dab(3S-OH) = NC[C@H](O)[C@H](N)C(=O)O; Hyp = O=C(O)[C@@H]1C[C@@H](O)CN1; 3Pal = N[C@@H](Cc1cccnc1)C(=O)O; 4Pal = N[C@@H](Cc1ccncc1)C(=O)O; ΔZArg = N=C(N)NCC/C=C(\N)C(=O)O; Lys(Me) = CNCCCC[C@H](N)C(=O)O; NMeK = CN[C@@H](CCCCN)C(=O)O; hLys = NCCCCC[C@H](N)C(=O)O; dOrn = NCCC[C@@H](N)C(=O)O; NMeA = CN[C@@H](C)C(=O)O; Aze = O=C(O)[C@@H]1CCN1; NH(CH2)4NH2 = NCCCCN*

How the values were obtained:
Experiment in all cases: MIC, broth microdilution (CLSI), reference strain
Details in all cases: CAMHB
[1] = tested on: Pseudomonas aeruginosa ATCC 27853
[2] = tested on: Staphylococcus aureus ATCC 13709
[3] = tested on: Acinetobacter baumannii ATCC 19606
[4] = tested on: Escherichia coli ATCC 25922

SMILES | Pa: MIC Pseudomonas aeruginosa ATCC 27853 [1] | Sa: MIC Staphylococcus aureus ATCC 13709 [2] | Ab: MIC Acinetobacter baumannii ATCC 19606 [3] | Ec: MIC Escherichia coli ATCC 25922 [4]
CC(=O)NCCCC[C@H](N)C(=O)N[C@H](C(=O)N[C@@H](C)C(=O)NCC(=O)N[C@H](CCCN)C(=O)N1CCC[C@H]1C(=O)N[C@@H](Cc1cnc[nH]1)C(=O)N[C@@H](CCCCN)C(=O)N/C(=C\CCNC(=N)N)C(=O)N[C@@H](CCCCN)C(=O)NCCCCN)[C@@H](O)CN [24.9] (H-K(Ac)[Dab(3S-OH)]AG[dOrn]PHK[ΔZArg]K-{NH(CH2)4NH2}) | − (>32 μg/mL) | + (≤32 μg/mL) | − (>32 μg/mL) | − (>32 μg/mL)
C[C@H](NC(=O)[C@@H](NC(=O)[C@@H](N)CCCCN)[C@@H](O)CN)C(=O)NCC(=O)N[C@H](CCCN)C(=O)N1CCC[C@H]1C(=O)N[C@@H](Cc1cccnc1)C(=O)N[C@@H](CCCCN)C(=O)N/C(=C\CCNC(=N)N)C(=O)N[C@@H](CCCCN)C(=O)NCCCCN [24.18] (H-K[Dab(3S-OH)]AG[dOrn]P[3Pal]K[ΔZArg]K-{NH(CH2)4NH2}) | − (>32 μg/mL) | ++ (≤8 μg/mL) | − (>32 μg/mL) | ++ (≤8 μg/mL)
C[C@H](NC(=O)[C@@H](NC(=O)[C@@H](N)CCCCN)[C@@H](O)CN)C(=O)NCC(=O)N[C@H](CCCN)C(=O)N1CCC[C@H]1C(=O)N[C@@H](Cc1ccncc1)C(=O)N[C@@H](CCCCN)C(=O)N/C(=C\CCNC(=N)N)C(=O)N[C@@H](CCCCN)C(=O)NCCCCN [24.19] (H-K[Dab(3S-OH)]AG[dOrn]P[4Pal]K[ΔZArg]K-{NH(CH2)4NH2}) | + (≤32 μg/mL) | ++ (≤8 μg/mL) | − (>32 μg/mL) | ++ (≤8 μg/mL)
C[C@H](NC(=O)[C@@H](NC(=O)[C@@H](N)CCCCN)[C@@H](O)CN)C(=O)NCC(=O)N[C@H](CCCN)C(=O)N1CCC[C@H]1C(=O)N[C@@H](CCC(N)=O)C(=O)N[C@@H](CCCCN)C(=O)N/C(=C\CCNC(=N)N)C(=O)N[C@@H](CCCCN)C(=O)NCCCCN [24.21] (H-K[Dab(3S-OH)]AG[dOrn]PQK[ΔZArg]K-{NH(CH2)4NH2}) | − (>32 μg/mL) | ++ (≤8 μg/mL) | − (>32 μg/mL) | ++ (≤8 μg/mL)
CNCCCC[C@H](N)C(=O)N[C@H](C(=O)N[C@@H](C)C(=O)NCC(=O)N[C@H](CCCN)C(=O)N1CCC[C@H]1C(=O)N[C@@H](Cc1cnc[nH]1)C(=O)N[C@@H](CCCCN)C(=O)N/C(=C\CCNC(=N)N)C(=O)N[C@@H](CCCCN)C(=O)NCCCCN)[C@@H](O)CN [24.43] (H-[Lys(Me)][Dab(3S-OH)]AG[dOrn]PHK[ΔZArg]K-{NH(CH2)4NH2}) | + (≤32 μg/mL) | ++ (≤8 μg/mL) | − (>32 μg/mL) | ++ (≤8 μg/mL)
CN[C@@H](CCCCN)C(=O)N[C@H](C(=O)N[C@@H](C)C(=O)NCC(=O)N[C@H](CCCN)C(=O)N1CCC[C@H]1C(=O)N[C@@H](Cc1cnc[nH]1)C(=O)N[C@@H](CCCCN)C(=O)N/C(=C\CCNC(=N)N)C(=O)N[C@@H](CCCCN)C(=O)NCCCCN)[C@@H](O)CN [24.61] (H-[NMeK][Dab(3S-OH)]AG[dOrn]PHK[ΔZArg]K-{NH(CH2)4NH2}) | + (≤32 μg/mL) | ++ (≤8 μg/mL) | + (≤32 μg/mL) | ++ (≤8 μg/mL)
C[C@H](NC(=O)[C@@H](NC(=O)[C@@H](N)CCCCN)[C@@H](O)CN)C(=O)NCC(=O)N[C@H](CCCN)C(=O)N1CCC[C@H]1C(=O)N[C@@H](Cc1cnc[nH]1)C(=O)N[C@@H](CCCCN)C(=O)N/C(=C\CCNC(=N)N)C(=O)N[C@@H](CCCCN)C(=O)O [24.62] (H-K[Dab(3S-OH)]AG[dOrn]PHK[ΔZArg]K-OH) | − (>32 μg/mL) | ++ (≤8 μg/mL) | − (>32 μg/mL) | + (≤32 μg/mL)
CN[C@@H](CCCCN)C(=O)N[C@H](C(=O)N[C@@H](C)C(=O)NCC(=O)N[C@H](CCCN)C(=O)N1CCC[C@H]1C(=O)N[C@@H](Cc1cnc[nH]1)C(=O)N[C@@H](CCCCN)C(=O)N/C(=C\CCNC(=N)N)C(N)=O)[C@@H](O)CN [24.63] (H-[NMeK][Dab(3S-OH)]AG[dOrn]PHK[ΔZArg]-NH2) | − (>32 μg/mL) | ++ (≤8 μg/mL) | − (>32 μg/mL) | ++ (≤8 μg/mL)
CNCCCC[C@H](N)C(=O)N[C@H](C(=O)N[C@@H](C)C(=O)NCC(=O)N[C@H](CCCN)C(=O)N1CCC[C@H]1C(=O)N[C@@H](Cc1cnc[nH]1)C(=O)N[C@@H](CCCCN)C(=O)N/C(=C\CCNC(=N)N)C(N)=O)[C@@H](O)CN [24.64] (H-[Lys(Me)][Dab(3S-OH)]AG[dOrn]PHK[ΔZArg]-NH2) | − (>32 μg/mL) | ++ (≤8 μg/mL) | − (>32 μg/mL) | ++ (≤8 μg/mL)
C[C@H](NC(=O)[C@@H](NC(=O)[C@@H](N)CCCCN)[C@@H](O)CN)C(=O)NCC(=O)N[C@H](CCCN)C(=O)N(C)[C@@H](C)C(=O)N[C@@H](Cc1cnc[nH]1)C(=O)N[C@@H](CCCCN)C(=O)N/C(=C\CCNC(=N)N)C(N)=O [24.65] (H-K[Dab(3S-OH)]AG[dOrn][NMeA]HK[ΔZArg]-NH2) | − (>32 μg/mL) | ++ (≤8 μg/mL) | − (>32 μg/mL) | + (≤32 μg/mL)
C[C@H](NC(=O)[C@@H](NC(=O)[C@@H](N)CCCCN)[C@@H](O)CN)C(=O)NCC(=O)N[C@H](CCCN)C(=O)N1CCC[C@H]1C(=O)N[C@@H](Cc1cnc[nH]1)C(=O)N[C@@H](CCCCN)C(=O)N[C@H](CCCNC(=N)N)C(N)=O [24.68] (H-K[Dab(3S-OH)]AG[dOrn]PHK[dR]-NH2) | − (>32 μg/mL) | ++ (≤8 μg/mL) | − (>32 μg/mL) | + (≤32 μg/mL)
C[C@H](NC(=O)[C@@H](NC(=O)[C@@H](N)CCCCCN)[C@@H](O)CN)C(=O)NCC(=O)N[C@H](CCCN)C(=O)N1CCC[C@H]1C(=O)N[C@@H](Cc1cnc[nH]1)C(=O)N[C@@H](CCCCN)C(=O)N/C(=C\CCNC(=N)N)C(N)=O [24.69] (H-[hLys][Dab(3S-OH)]AG[dOrn]PHK[ΔZArg]-NH2) | − (>32 μg/mL) | ++ (≤8 μg/mL) | − (>32 μg/mL) | + (≤32 μg/mL)
C[C@H](NC(=O)[C@@H](NC(=O)[C@@H](N)CCCCN)[C@@H](O)CN)C(=O)NCC(=O)N[C@H](CCCN)C(=O)N1C[C@H](O)C[C@H]1C(=O)N[C@@H](Cc1cnc[nH]1)C(=O)N[C@@H](CCCCN)C(=O)N/C(=C\CCNC(=N)N)C(=O)O [24.70] (H-K[Dab(3S-OH)]AG[dOrn][Hyp]HK[ΔZArg]-OH) | − (>32 μg/mL) | + (≤32 μg/mL) | − (>32 μg/mL) | − (>32 μg/mL)
C[C@H](NC(=O)[C@@H](NC(=O)[C@@H](N)CCCCN)[C@@H](O)CN)C(=O)NCC(=O)N[C@H](CCCN)C(=O)N1CC[C@H]1C(=O)N[C@@H](Cc1cccc(F)c1)C(=O)N[C@@H](CCCCN)C(=O)N/C(=C\CCNC(=N)N)C(=O)O [24.71] (H-K[Dab(3S-OH)]AG[dOrn][Aze][Phe(3-F)]K[ΔZArg]-OH) | − (>32 μg/mL) | + (≤32 μg/mL) | − (>32 μg/mL) | + (≤32 μg/mL)
C[C@H](NC(=O)[C@@H](NC(=O)[C@@H](N)CCCCN)[C@@H](O)CN)C(=O)NCC(=O)N[C@H](CCCN)C(=O)N1CC[C@H]1C(=O)N[C@@H](Cc1ccc(Cl)cc1)C(=O)N[C@@H](CCCCN)C(=O)N/C(=C\CCNC(=N)N)C(=O)O [24.72] (H-K[Dab(3S-OH)]AG[dOrn][Aze][Phe(4-Cl)]K[ΔZArg]-OH) | − (>32 μg/mL) | ++ (≤8 μg/mL) | − (>32 μg/mL) | + (≤32 μg/mL)
C[C@H](NC(=O)[C@@H](NC(=O)[C@@H](N)CCCCN)[C@@H](O)CN)C(=O)NCC(=O)N[C@H](CCCN)C(=O)N1CC[C@H]1C(=O)N[C@@H](Cc1cnc[nH]1)C(=O)N[C@@H](CCCCN)C(=O)N/C(=C\CCNC(=N)N)C(=O)O [24.73] (H-K[Dab(3S-OH)]AG[dOrn][Aze]HK[ΔZArg]-OH) | − (>32 μg/mL) | + (≤32 μg/mL) | − (>32 μg/mL) | + (≤32 μg/mL)
